Our source for the Activity values is ChEMBL document CHEMBL1147871, “Synthesis and antioxidant activity of new homocarnosine beta-cyclodextrin conjugates” (Eur J Med Chem, 2007).

Molecules are shown by their SMILES.

What all share (assay type): functional
The nature of test [1]: Effect on copper-induced human LDL peroxidation assessed as inhibition of malonaldehyde production at 2 uM after 4 hrs. More on the design: scale not given: the % may be the effect or the level left.
The nature of test [2]: Effect on copper-induced human LDL peroxidation assessed as inhibition of malonaldehyde production at 5 uM after 4 hrs. More on the design: scale not given: the % may be the effect or the level left.
Test [3] is described as follows: Effect on copper-induced human LDL peroxidation assessed as inhibition of malonaldehyde production at 10 uM after 4 hrs. On the set-up: scale not given: the % may be the effect or the level left.
Test [4] in a line: Effect on copper-induced human LDL peroxidation assessed as inhibition of malonaldehyde production at 20 uM after 4 hrs. On the set-up: scale not given: the % may be the effect or the level left.
The nature of test [5]: Effect on copper-induced human LDL peroxidation assessed as inhibition of malonaldehyde production at 50 uM after 4 hrs. On the set-up: scale not given: the % may be the effect or the level left.
The nature of test [6]: Effect on copper-induced human LDL peroxidation assessed as inhibition of malonaldehyde production at 100 uM after 4 hrs. More on the design: scale not given: the % may be the effect or the level left.
The nature of test [7]: Effect on copper-induced human LDL peroxidation assessed as inhibition of malonaldehyde production at 200 uM after 4 hrs. More on the design: scale not given: the % may be the effect or the level left.
Test [8] can be described thus: Protective effect on copper-induced LDL oxidation at 20:1 copper to drug ratio relative to 40 uM copper.
Test [9] in a line: Protective effect on copper-induced LDL oxidation at 1:1.25 copper to drug ratio relative to 40 uM copper.
Test [10] can be described thus: Protective effect on copper-induced LDL oxidation at 1:2.5 copper to drug ratio relative to 40 uM copper.
Test [11] is described as follows: Protective effect on copper-induced LDL oxidation at 1:5 copper to drug ratio relative to 40 uM copper.
Test [12] can be described thus: Protective effect on copper-induced LDL oxidation at 8:1 copper to drug ratio relative to 40 uM copper.
Test [13] can be described thus: Protective effect on copper-induced LDL oxidation at 4:1 copper to drug ratio relative to 40 uM copper.
Test [14] in a line: Protective effect on copper-induced LDL oxidation at 2:1 copper to drug ratio relative to 40 uM copper.

Consider `NCCCC(=O)N[C@@H](Cc1cnc[nH]1)C(=O)O`, for which the Activity in [1] was 0.31%; in test [2] it was 1.02%; in [3] it was 1.86%; in [4], 2.5%; in test [5], 8.28%; in [6] it was 12.1%. The Activity in test [7] was 17.6%; in [8], 0%; in [9] it was 8%; in [10] it was 12%; in test [11] it was 18%; in test [12], 1%. Moreover, the values for the Activity in test [13] and in test [14] were 2% and 3%, respectively.
Consider `OC[C@H]1O[C@@H]2O[C@H]3[C@H](O)[C@@H](O)[C@@H](O[C@H]4[C@H](O)[C@@H](O)[C@@H](O[C@H]5[C@H](O)[C@@H](O)[C@@H](O[C@H]6[C@H](O)[C@@H](O)[C@@H](O[C@H]7[C@H](O)[C@@H](O)[C@@H](O[C@H]8[C@H](O)[C@@H](O)[C@@H](O[C@H]1[C@H](O)[C@H]2O)O[C@@H]8CO)O[C@@H]7CO)O[C@@H]6CO)O[C@@H]5CO)O[C@@H]4CO)O[C@@H]3CO`, for which the Activity stood at 0.11% in [1]; 0.38% in [2]; 0.65% in test [3]; 1.26% in [4]; 3.87% in test [5]; 6.94% in test [6]. Also, in test [7], the Activity was 10.7%.
Regarding `NCCC(=O)N[C@@H](Cc1c[nH]cn1)C(=O)O`, the Activity is 0.28% in test [1]; 0.93% in test [2]; 1.38% in test [3]; 2.72% in [4]; 9.13% in test [5]; 15.1% in [6]. In addition, the Activity came out at 22.5% in [7]; 0% in test [8]; 9% in test [9]; 15% in test [10]; 22% in [11]; 1% in [12]. Besides, the Activity amounted to 1% in test [13] and 3% in test [14].
